Data: patent US8574607B2, “Spiroheterocyclic thiofuran dione derivatives” (Syngenta Crop Protection, Inc., priority 2009, dated 2013)
Like-named read-outs stand apart in the source and are kept apart here. Blank lines part the entries; values can stand above or below the molecule they belong to.

Columns and labels:
[1] = test system: Myzus persicae (Green Peach Aphid); experiment: Example B1: Myzus persicae, mixed population, feeding/residual contact activity, preventive (sprayed sunflower leaf discs); settings: foliar, 144 h, read-out: activity (mortality)
[2] = test system: Myzus persicae (Green Peach Aphid); settings: 144 h, read-out: activity (mortality)
[3] = test system: Tetranychus urticae (Two-Spotted Spider Mite); settings: foliar, 192 h, read-out: activity (egg, larval and adult mortality)
[4] = test system: Myzus persicae (Green Peach Aphid); experiment: Example B11: Myzus persicae, mixed population, feeding/residual contact activity (sprayed pepper plants); format: in vivo; settings: 144 h, spray chamber, 6 days after treatment, read-out: activity against Myzus persicae (mortality)
[5] = test system: Aphis craccivora (Cowpea Aphid); experiment: Example B8: Aphis craccivora, mixed population, systemic/feeding (roots of pea seedlings in test solution); format: in vivo; settings: 144 h, read-out: activity (mortality)
Source text: (§1) Activity Against Aphis craccivora (Cowpea Aphid)
(Mixed Population, Systemic/Feeding)
6 days later, samples are checked for mortality.

[6] = test system: Myzus persicae (Green Peach Aphid); experiment: Example B10: drench activity against Myzus persicae (pea seedlings in field soil); settings: 168 h, read-out: drench activity (mortality)
[7] = test system: Nilaparvata lugens (Brown Rice Planthopper); experiment: Example B6: Nilaparvata lugens, larvicide, feeding/contact (rice seedlings); settings: in Oryza sativa, read-out: activity (mortality, growth regulation, effects on F1 generation)
[8] = test system: Aphis craccivora (Cowpea Aphid); experiment: whole plant or invertebrate; format: in vivo; settings: 144 h, read-out: activity (mortality)
Source text: as §1
(Mixed Population, Contact/Feeding)
6 days after treatment, samples are checked for mortality.

[9] = test system: Aphis craccivora (Cowpea Aphid); experiment: whole plant or invertebrate; settings: in Phaseolus vulgaris, 120 h, read-out: translaminar activity (mortality)
[10] = test system: Thrips tabaci (Onion Thrips); settings: foliar, 144 h, read-out: activity (mortality)

Compound: CCc1cc(C)cc(C)c1C1=C(O)C2(CCN(OC)CC2)OC1=O [P2.51]
- mortality at 400 ppm [1]: > 80%
- mortality at 400 ppm [2]: > 80%
- mortality at 400 ppm [3]: > 80%

Compound: CON1CCC2(CC1)OC(=O)C(c1cc(C)c(C)cc1C)=C2OC(=O)C(C)(C)C [P1.4]
- mortality at 400 ppm [1]: > 80%
- mortality at 400 ppm [2]: > 80%
- mortality at 200 ppm [4]: ≥ 80%

Compound: CON1CCC2(CC1)OC(=O)C(c1c(C)cc(C)cc1C)=C2O [P2.3, 4-hydroxy-8-methoxy-3-(2,4,6-trimethyl-phenyl)-1-oxa-8-aza-spiro[4.5]dec-3-en-2-one]
- mortality at 25 ppm [5]: > 80%
- mortality at 400 ppm [1]: > 80%
- mortality at 25 ppm [6]: > 80%
- mortality at 400 ppm [7]: > 80%
- mortality at 400 ppm [8]: > 80%
- mortality at 400 ppm [2]: > 80%
- mortality at 400 ppm [9]: > 80%
- mortality at 400 ppm [3]: > 80%

Compound: CCOC(=O)OC1=C(c2c(C)cc(C)cc2C)C(=O)OC12CCN(OCC)CC2 [P1.17]
- mortality at 400 ppm [1]: > 80%
- mortality at 400 ppm [10]: > 80%
- mortality at 400 ppm [2]: > 80%
- mortality at 400 ppm [3]: > 80%

Compound: CON1CCC2(CC1)OC(=O)C(c1c(Br)cc(C)cc1Br)=C2O [P2.40]
- mortality at 400 ppm [3]: > 80%

Compound: CCOC(=O)OC1=C(c2ccc(C)cc2C)C(=O)OC12CCN(OC)CC2 [P1.13]
- mortality at 400 ppm [1]: > 80%
- mortality at 400 ppm [10]: > 80%
- mortality at 400 ppm [2]: > 80%
- mortality at 200 ppm [4]: ≥ 80%

Compound: CCOC(=O)OC1=C(c2c(C)ccc(Cl)c2C)C(=O)OC12CCN(OC)CC2 [P1.15]
- mortality at 400 ppm [3]: > 80%

Compound: CCOC(=O)OC1=C(c2cc(C)c(C)cc2C)C(=O)OC12CCN(OC)CC2 [P1.3]
- mortality at 400 ppm [1]: > 80%
- mortality at 400 ppm [2]: > 80%
- mortality at 200 ppm [4]: ≥ 80%

Compound: CON1CCC2(CC1)OC(=O)C(c1c(C)cc(Br)cc1Cl)=C2O [P2.47]
- mortality at 200 ppm [4]: ≥ 80%

Compound: CON1CCC2(CC1)OC(=O)C(c1ccc(Cl)cc1)=C2O [P2.35]
- mortality at 400 ppm [3]: > 80%

Compound: CON1CCC2(CC1)SC(=O)C(c1c(C)cc(C)cc1C)=C2O [P2.4, 4-hydroxy-8-methoxy-3-(2,4,6-trimethyl-phenyl)-1-thia-8-aza-spiro[4.5]dec-3-en-2-one]
- mortality at 400 ppm [1]: > 80%
- mortality at 400 ppm [3]: > 80%

Compound: C=Cc1cc(C)c(C2=C(O)C3(CCN(OC)CC3)OC2=O)c(C)c1 [P2.7]
- mortality at 400 ppm [1]: > 80%
- mortality at 400 ppm [2]: > 80%

- melting point: 81 to 83 °C
Compound: CCOC(=O)OC1=C(c2cc(C)ccc2OC)C(=O)OC12CCN(OC)CC2 [P1.16]

Compound: COCCON1CCC2(CC1)OC(=O)C(c1c(C)cc(C)cc1C)=C2O [P2.14]
- mortality at 400 ppm [10]: > 80%
- mortality at 400 ppm [3]: > 80%

Compound: CON1CCC2(CC1)OC(=O)C(c1c(C)cc(Br)cc1C)=C2O [P2.5]
- mortality at 400 ppm [1]: > 80%
- mortality at 400 ppm [2]: > 80%

Compound: CCON1CCC2(CC1)OC(=O)C(c1c(C)cc(C)cc1C)=C2O [P2.12]
- mortality at 400 ppm [1]: > 80%
- mortality at 400 ppm [10]: > 80%
- mortality at 400 ppm [2]: > 80%
- mortality at 400 ppm [3]: > 80%

Compound: CON1CCC2(CC1)OC(=O)C(c1cc(C)ccc1C)=C2O [P2.1, 3-(2,5-dimethyl-phenyl)-4-hydroxy-8-methoxy-1-oxa-8-aza-spiro[4.5]dec-3-en-2-one]
- mortality at 400 ppm [1]: > 80%
- mortality at 400 ppm [2]: > 80%
- mortality at 200 ppm [4]: ≥ 80%

Compound: CCC(C)(C)C(=O)OC1=C(c2c(C)cc(C)cc2C)C(=O)OC12CCN(OC)CC2 [P1.10]
- mortality at 400 ppm [1]: > 80%
- mortality at 400 ppm [2]: > 80%
- mortality at 400 ppm [3]: > 80%

Compound: COc1c(Cl)cccc1C1=C(O)C2(CCN(OC)CC2)OC1=O [P2.37]
- mortality at 400 ppm [1]: > 80%

Compound: CON1CCC2(CC1)OC(=O)C(c1c(C)cc(C)cc1C)=C2OC(=O)C(C)(C)C [P1.6]
- mortality at 400 ppm [1]: > 80%
- mortality at 400 ppm [2]: > 80%
- mortality at 200 ppm [4]: ≥ 80%

Compound: CON1CCC2(CC1)OC(=O)C(c1cc(C)ccc1C)=C2OC(=O)C(C)(C)C [P1.2]
- mortality at 400 ppm [1]: > 80%
- mortality at 400 ppm [2]: > 80%

Compound: CCOC(=O)OC1=C(c2c(C)cc(C)cc2C)C(=O)OC12CCN(OC)CC2 [P1.5, Carbonic acid ethyl ester 8-methoxy-2-oxo-3-(2,4,6-trimethylphenyl)-1-oxa-8-aza-spiro[4.5]dec-3-en-4-yl ester]
- mortality at 400 ppm [1]: > 80%
- mortality at 400 ppm [2]: > 80%

Compound: CCOC(=O)OC1=C(c2c(C)cc(C)cc2C2CC2)C(=O)OC12CCN(OC)CC2 [P1.34]
- mortality at 400 ppm [2]: > 80%
- mortality at 400 ppm [3]: > 80%

Compound: CCOC(=O)OC1=C(c2c(C)cc(C)cc2C)C(=O)OC12CCN(OCCOC)CC2 [P1.19]
- mortality at 400 ppm [2]: > 80%
- mortality at 400 ppm [3]: > 80%

Compound: CON1CCC2(CC1)OC(=O)C(c1c(C)cc(C)cc1C1CC1)=C2O [P2.49]
- mortality at 400 ppm [1]: > 80%
- mortality at 400 ppm [2]: > 80%
- mortality at 400 ppm [3]: > 80%

Compound: CON1CCC2(CC1)OC(=O)C(c1ccc(F)cc1)=C2O [P2.20]
- mortality at 400 ppm [3]: > 80%

- melting point: 93 to 94 °C
Compound: CCOC(=O)OC1=C(c2c(C)cccc2C)C(=O)OC12CCN(OC)CC2 [P1.40]

Compound: C=Cc1cc(C)c(C2=C(OC(=O)OCC)C3(CCN(OC)CC3)OC2=O)c(C)c1 [P1.12]
- mortality at 400 ppm [2]: > 80%

- melting point: 122 to 125 °C
Compound: CCOC(=O)OC1=C(c2c(Cl)cc(Br)cc2Cl)C(=O)OC12CCN(OC)CC2 [P1.30]

Compound: CCOC(=O)OC1=C(c2c(C)cc(Br)cc2C)C(=O)OC12CCN(OC)CC2 [P1.8]
- mortality at 400 ppm [2]: > 80%

Compound: CCOC(=O)OC1=C(c2ccc(Cl)cc2Cl)C(=O)OC12CCN(OC)CC2 [P1.14]
- mortality at 400 ppm [1]: > 80%
- mortality at 400 ppm [2]: > 80%

Compound: CON1CCC2(CC1)OC(=O)C(c1c(C)cc(C)c(Cl)c1C)=C2O [P2.13]
- mortality at 400 ppm [2]: > 80%
- mortality at 400 ppm [3]: > 80%

- melting point: 52 to 54 °C
Compound: CCOC(=O)OC1=C(c2c(C)cc(C)c(Br)c2C)C(=O)OC12CCN(OC)CC2 [P1.39]

Compound: CCOC(=O)OC1=C(c2c(F)ccc(Br)c2Cl)C(=O)OC12CCN(OC)CC2 [P1.29]
- mortality at 400 ppm [3]: > 80%

Compound: CON1CCC2(CC1)OC(=O)C(c1ccc(Cl)cc1Cl)=C2O [P2.9]
- mortality at 400 ppm [3]: > 80%

Compound: CON1CCC2(CC1)OC(=O)C(c1c(C)cc(Cl)cc1C)=C2O [P2.6]
- mortality at 400 ppm [1]: > 80%
- mortality at 400 ppm [3]: > 80%

Compound: C=Cc1cc(C)cc(C)c1C1=C(O)C2(CCN(OC)CC2)OC1=O [P2.50]
- mortality at 400 ppm [1]: > 80%
- mortality at 400 ppm [2]: > 80%

Compound: CCOC(=O)OC1=C(c2cc(C)ccc2C)C(=O)OC12CCN(OC)CC2 [P1.1, Carbonic acid 3-(2,5-dimethyl-phenyl)-8-methoxy-2-oxo-1-oxa-8-aza-spiro[4.5]dec-3-en-4-yl ester ethyl ester]
- mortality at 400 ppm [2]: > 80%
- mortality at 200 ppm [4]: ≥ 80%

Compound: CON1CCC2(CC1)OC(=O)C(c1cc(C)c(Cl)cc1C)=C2O [P2.48]
- mortality at 200 ppm [4]: ≥ 80%

Compound: COc1ccccc1C1=C(O)C2(CCN(OC)CC2)OC1=O [P2.34]
- mortality at 400 ppm [1]: > 80%

Compound: CON1CCC2(CC1)OC(=O)C(c1cc(C)c(C)cc1C)=C2O [P2.2, 4-Hydroxy-8-methoxy-3-(2,4,5-trimethyl-phenyl)-1-oxa-8-aza-spiro[4.5]dec-3-en-2-one]
- mortality at 400 ppm [1]: > 80%
- mortality at 400 ppm [10]: > 80%
- mortality at 400 ppm [2]: > 80%
- mortality at 200 ppm [4]: ≥ 80%

Compound: CCOC(=O)OC1=C(c2c(C)cc(C)cc2C)C(=O)SC12CCN(OC)CC2 [P1.7, Carbonic acid ethyl ester 8-methoxy-2-oxo-3-(2,4,6-trimethylphenyl)-1-thia-8-aza-spiro[4.5]dec-3-en-4-yl ester]
- mortality at 400 ppm [1]: > 80%

Compound: CON1CCC2(CC1)OC(=O)C(c1c(C)cc(C)cc1C)=C2OC(=O)CC(C)(C)C [P1.9]
- mortality at 400 ppm [1]: > 80%
- mortality at 400 ppm [2]: > 80%

Compound: CCOC(=O)OC1=C(c2c(C)cc(Cl)cc2C)C(=O)OC12CCN(OC)CC2 [P1.11]
- mortality at 25 ppm ([5]; 25 ppm, roots in test solution, 6 days): > 80%
- mortality at 400 ppm [1]: > 80%
- mortality at 25 ppm [6]: > 80%
- mortality at 400 ppm [7]: > 80%
- mortality at 400 ppm [2]: > 80%
- mortality at 400 ppm [3]: > 80%
- mortality at 200 ppm [4]: ≥ 80%

Compound: CON1CCC2(CC1)OC(=O)C(c1ccc(C)cc1C)=C2O [P2.8]
- mortality at 400 ppm [1]: > 80%
- mortality at 400 ppm [2]: > 80%
- mortality at 200 ppm [4]: ≥ 80%

Compound: CCOC(=O)OC1=C(c2c(C)cc(C)c(Cl)c2C)C(=O)OC12CCN(OC)CC2 [P1.18]
- mortality at 400 ppm [2]: > 80%

Compound: CCOC(=O)OC1=C(c2cc(C)c(Cl)cc2C)C(=O)OC12CCN(OC)CC2 [P1.33]
- mortality at 400 ppm [2]: > 80%
